In patent US10150757B2, “Quinazolinone derivatives as PARP inhibitors” (Janssen Pharmaceutica NV, priority 2004, dated 2018):

Legend:
[1] = target: T1, PARP-1 enzyme (Homo sapiens, UniProt P09874); test: In vitro scintillation proximity assay (SPA) for PARP-1 inhibitory activity; assay type: biochemical; details: [3H]-NAD+, biotinylated histones, nicked DNA; read-out: in vitro SPA assay PARP-1 pIC50 (converted)
Experimental: In Vitro Scintillation Proximity Assay (SPA) for PARP-1 Inhibitory Activity
Compounds of the present invention were tested in an in vitro assay based on SPA technology (proprietary to Amersham Pharmacia Biotech).
In principle, the assay relies upon the well established SPA technology for the detection of poly(ADP-ribosyl)ation of biotinylated target proteins, i.e histones. This ribosylation is induced using nicked DNA activated PARP-1 enzyme and [^3H]-nicotinamide adenine dinucleotide ([^3H]-NAD^+) as ADP-ribosyl donor.
As inducer of PARP-1 enzyme activity, nicked DNA was prepared. For this, 25 mg of DNA (supplier: Sigma) was dissolved in 25 ml DNAse buffer (10 mM Tris-HCl, pH 7.4; 0.5 mg/ml Bovine Serum Albumine (BSA); 5 mM MgCl2.6H2O and 1 mM KCl) to which 50 μl DNAse solution (1 mg/ml in 0.15M NaCl) was added. After an incubation of 90 min. at 37° C., the reaction was terminated by adding 1.45 g NaCl, followed by a further incubation at 58° C. for 15 min. The reaction mixture was cooled on ice and dialysed at 4° C. for respectively 1.5 and 2 hours against 1.5 l of 0.2M KCl, and twice against 1.5 l of 0.01M KCl for 1.5 and 2 h respectively. The mixture was aliquoted and stored at −20° C. Histones (1 mg/ml, type II-A, supplier: Sigma) were biotinylated using the biotinylation kit of Amersham and stored aliquoted at −20° C. A stock solution of 100 mg/ml SPA poly(vinyl toluene) (PVT) beads (supplier: Amersham) was made in PBS. A stock solution of [^3H]-NAD^+ was made by adding 120 μl of [^3H]-NAD^+ (0.1 mCi/ml, supplier: NEN) to 6 ml incubation buffer (50 mM Tris/HCl, pH 8; 0.2 mM DTT; 4 mM MgCl2). A solution of 4 mM NAD^+ (supplier: Roche) was made in incubation buffer (from a 100 mM stock solution in water stored at −20° C.). The PARP-1 enzyme was produced using art known techniques, i.e. cloning and expression of the protein starting from human liver cDNA. Information concerning the used protein sequence of the PARP-1 enzyme including literature references can be found in the Swiss-Prot database under primary accession number P09874. Biotinylated histones and PVT-SPA beads were mixed and pre-incubated for 30 min. at room temperature. PARP-1 enzyme (concentration was lot dependent) was mixed with the nicked DNA and the mixture was pre-incubated for 30 min. at 4° C. Equal parts of this histones/PVT-SPA beads solution and PARP-1 enzyme/DNA solution were mixed and 75 μl of this mixture together with 1 μl of compound in DMSO and 25 μl of [^3H]-NAD^+ was added per well into a 96-well microtiterplate. The final concentrations in the incubation mixture were 2 μg/ml for the biotinylated histones, 2 mg/ml for the PVT-SPA beads, 2 μg/ml for the nicked DNA and between 5-10 μg/ml for the PARP-1 enzyme. After incubation of the mixture for 15 min. at room temperature, the reaction was terminated by adding 100 μl of 4 mM NAD^+ in incubation buffer (final concentration 2 mM) and plates were mixed.
The beads were allowed to sediment for at least 15 min. and plates transferred to a TopCountNXT™ (Packard) for scintillation counting, values were expressed as counts per minute (cpm). For each experiment, controls (containing PARP-1 enzyme and DMSO without compound), a blank incubation (containing DMSO but no PARP-1 enzyme or compound) and samples (containing PARP-1 enzyme and compound dissolved in DMSO) were run in parallel. All compounds tested were dissolved and eventually further diluted in DMSO. In first instance, compounds were tested at a concentration of 10^−5M. […] In each test, the blank value was subtracted from both the control and the sample values. The control sample represented maximal PARP-1 enzyme activity. For each sample, the amount of cpm was expressed as a percentage of the mean cpm value of the controls. […] Herein the effects of test compounds are expressed as pIC50 (the negative log value of the IC50-value).

[2] = target: T1, PARP-1 enzyme; test: In vitro filtration assay for PARP-1 inhibitory activity; assay type: biochemical; details: [32P]-NAD, histones, nicked DNA; read-out: in vitro filter assay PARP-1 pIC50 (converted)
Experimental: In Vitro Filtration Assay for PARP-1 Inhibitory Activity
Compounds of the present invention were tested in an in vitro filtration assay assessing PARP-1 activity (triggered in the presence of nicked DNA) by means of its histone poly (ADP-ribosyl)ation activity using [^32P]-NAD as ADP-ribosyl donor. The radioactive ribosylated histones were precipitated by trichloroacetic acid (TCA) in 96-well filterplates and the incorporated [^32P] measured using a scintillation counter
A mixture of histones (stock solution: 5 mg/ml in H2O), NAD^+ (stock solution: 100 mM in H2O), and [^32P]-NAD^+ in incubation buffer (50 mM Tris/HCl, pH 8; 0.2 mM DTT; 4 mM MgCl2) was made. A mixture of the PARP-1 enzyme (5-10 μg/ml) and nicked DNA was also made. The nicked DNA was prepared as described in the in vitro SPA for PARP-1 inhibitory activity. Seventy-five μl of the PARP-1 enzyme/DNA mixture together with 1 μl of compound in DMSO and 25 μl of histones-NAD^+/[^32P]-NAD^+ mixture was added per well of a 96-well filterplate (0.45 μm, supplier Millipore). The final concentrations in the incubation mixture were 2 μg/ml for the histones, 0.1 mM for the NAD^+, […] (0.5 μC) for the [^32P]-NAD^+ and 2 μg/ml for the nicked DNA. Plates were incubated for 15 min. at room temperature and the reaction was terminated by the addition of 10 μl ice cold 100% TCA followed by the addition of 10 μl ice-cold BSA solution (1% in H2O). The protein fraction was allowed to precipitate for 10 min. at 4° C. and plates were vacuum filtered. The plates were subsequently washed with, for each well, 1 ml of 10% ice cold TCA, 1 ml of 5% ice cold TCA and 1 ml of 5% TCA at room temperature. Finally 100 μl of scintillation solution (Microscint 40, Packard) was added to each well and the plates were transferred to a TopCountNXT™ (supplier: Packard) for scintillation counting and values were expressed as counts per minute (cpm). For each experiment, controls (containing PARP-1 enzyme and DMSO without compound), a blank incubation (containing DMSO but no PARP-1 enzyme or compound) and samples (containing PARP-1 enzyme and compound dissolved in DMSO) were run in parallel. All compounds tested were dissolved and eventually further diluted in DMSO. In first instance, compounds were tested at a concentration of 10^−5M. […] In each test, the blank value was subtracted from both the control and the sample values. The control sample represented maximal PARP-1 enzyme activity. For each sample, the amount of cpm was expressed as a percentage of the mean cpm value of the controls. […] Herein the effects of test compounds are expressed as pIC50 (the negative log value of the IC50-value).

T1 sequence (P09874 whole entry): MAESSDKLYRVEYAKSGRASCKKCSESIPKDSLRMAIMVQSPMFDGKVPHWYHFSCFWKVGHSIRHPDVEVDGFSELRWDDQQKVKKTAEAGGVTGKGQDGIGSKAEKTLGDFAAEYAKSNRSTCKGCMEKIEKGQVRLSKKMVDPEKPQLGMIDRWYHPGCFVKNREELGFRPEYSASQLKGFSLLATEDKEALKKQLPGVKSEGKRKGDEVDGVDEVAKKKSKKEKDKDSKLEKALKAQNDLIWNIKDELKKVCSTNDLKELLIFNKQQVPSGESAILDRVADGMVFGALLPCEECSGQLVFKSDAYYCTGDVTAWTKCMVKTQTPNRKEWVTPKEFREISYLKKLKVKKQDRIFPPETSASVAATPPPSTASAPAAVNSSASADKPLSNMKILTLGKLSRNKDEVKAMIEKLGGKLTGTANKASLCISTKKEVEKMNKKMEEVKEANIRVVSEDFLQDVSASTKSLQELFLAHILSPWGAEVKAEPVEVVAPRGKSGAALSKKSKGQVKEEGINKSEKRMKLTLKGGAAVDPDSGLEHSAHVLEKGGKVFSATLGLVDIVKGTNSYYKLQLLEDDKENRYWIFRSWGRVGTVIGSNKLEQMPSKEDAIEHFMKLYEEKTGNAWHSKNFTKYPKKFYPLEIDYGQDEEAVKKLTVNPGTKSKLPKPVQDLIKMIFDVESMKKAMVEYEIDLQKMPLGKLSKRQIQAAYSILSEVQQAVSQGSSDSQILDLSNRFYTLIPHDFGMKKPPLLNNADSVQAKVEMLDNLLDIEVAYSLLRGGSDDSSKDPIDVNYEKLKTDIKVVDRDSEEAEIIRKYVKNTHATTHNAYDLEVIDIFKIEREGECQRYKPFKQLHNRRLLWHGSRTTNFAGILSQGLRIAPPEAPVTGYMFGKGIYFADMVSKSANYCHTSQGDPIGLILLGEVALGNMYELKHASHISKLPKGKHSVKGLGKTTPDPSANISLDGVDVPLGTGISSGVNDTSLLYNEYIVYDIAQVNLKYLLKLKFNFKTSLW

IC50 [1]	IC50 [2]	Structure (SMILES)
425 nM	1630 nM	O=c1[nH]c(NCCCN2CCC(c3noc4cc(F)ccc34)CC2)nc2ccccc12 [Compound 26]
231 nM	1870 nM	O=C(c1ccc(F)cc1)C1CCN(CCNc2nc3ccccc3c(=O)[nH]2)CC1 [Compound 46]
785 nM	4650 nM	O=c1[nH]c(NCCCN2CCC(n3c(=O)[nH]c4ccccc43)CC2)nc2ccccc12 [Compound 29]
592 nM	3440 nM	Nc1c(Cl)cc(C(=O)OCC2CCN(CCNc3nc4ccccc4c(=O)[nH]3)CC2)c2c1OCCO2 [Compound 7]
25.5 nM	520 nM	O=c1[nH]c(NCCN2CCC(c3n[nH]c4cc(F)ccc34)CC2)nc2ccccc12 [Compound 21]
785 nM	4950 nM	O=c1[nH]c(NCCCN2CCN(c3nsc4ccccc34)CC2)nc2ccccc12 [Compound 24]
12.4 nM	–	Cc1ccc2nc(NCCN3CCN(c4n[nH]c5ccccc45)CC3)[nH]c(=O)c2c1 [Compound 43]
638 nM	2640 nM	CC1(C)Cc2c(N)c(Cl)cc(C(=O)NC3CCN(CCCCNc4nc(O)c5ccccc5n4)CC3)c2O1 [Compound 5]
44.5 nM	546 nM	O=c1[nH]c(NCCN2CCN(c3n[nH]c4cc(F)ccc34)CC2)nc2ccccc12 [Compound 41]
29.3 nM	–	O=c1[nH]c(NCCN2CCN(c3n[nH]c4ccccc34)CC2)nc2cc(Cl)ccc12 [Compound 44]
10.8 nM	–	O=c1[nH]c(NCCN2CCC(c3n[nH]c4cc(F)ccc34)CC2)nc2ccc(Cl)cc12 [Compound 36]
190 nM	2320 nM	O=c1[nH]c(NCCCN2CCC(c3n[nH]c4cc(F)ccc34)CC2)nc2ccccc12 [Compound 25]
424 nM	–	O=c1[nH]c(NCCN2CCN(c3nc4ccccc4c(=O)[nH]3)CC2)nc2ccccc12 [Compound 38]
535 nM	–	CCc1cc2cc(CN3CCN(CCNc4nc5ccccc5c(=O)[nH]4)CC3)ccc2nc1OC [Compound 3]
44.4 nM	424 nM	O=c1[nH]c(NCCCN2CCN(c3n[nH]c4cc(F)ccc34)CC2)nc2ccccc12 [Compound 27]
7.76 nM	–	O=c1[nH]c(NCCN2CCN(c3n[nH]c4ccccc34)CC2)nc2ccc(Cl)cc12 [Compound 1]

IC50 [1]	IC50 [2]	Structure (SMILES)
34.8 nM	–	O=c1[nH]c(NCCN2CCC(Nc3n[nH]c(=O)c4ccccc34)CC2)nc2ccccc12 [Compound 33]
46.3 nM	467 nM	O=c1[nH]c(NCCCN2CCN(c3n[nH]c4ccccc34)CC2)nc2ccccc12 [Compound 22]
675 nM	5300 nM	O=c1[nH]c(NCCCN2CCC(c3c[nH]c4ccccc34)CC2)nc2ccccc12 [Compound 20]
841 nM	8950 nM	O=c1[nH]c(NCCCN2CCC(Nc3cccc4ccccc34)CC2)nc2ccccc12 [Compound 42]
687 nM	2540 nM	O=C(NC1CCN(CCCNc2nc3ccccc3c(=O)[nH]2)CC1)c1ccccc1 [Compound 23]
535 nM	2110 nM	CO[C@@H]1CN(CCCNc2nc(O)c3ccccc3n2)CCN1NC(=O)c1cc(Cl)c(N)c2c1OC(C)(C)C2 [Compound 8]
225 nM	3050 nM	Nc1c(Cl)cc(C(=O)NC2CCN(CCCNc3nc(O)c4ccccc4n3)CC2)c2c1CCO2 [Compound 45]
15.3 nM	–	Cc1ccc2nc(NCCN3CCC(c4n[nH]c5cc(F)ccc45)CC3)[nH]c(=O)c2c1 [Compound 37]
322 nM	2240 nM	O=c1nc(NCCCN2CCC(Nc3nccc4ccccc34)CC2)[nH]c2ccccc12 [Compound 40]
39.4 nM	–	O=c1[nH]c(NCCN2CCC(c3n[nH]c4cc(F)ccc34)CC2)nc2cc(Cl)ccc12 [Compound 31]
9.93 nM	–	Cc1cccc2nc(NCCN3CCN(c4n[nH]c5ccccc45)CC3)[nH]c(=O)c12 [Compound 39]
1490 nM	2820 nM	CCCCn1cc(C2CCN(CCCNc3nc4ccccc4c(=O)[nH]3)CC2)c2ccccc21 [Compound 28]
847 nM	4520 nM	CO[C@H]1CN(CCCNc2nc3ccccc3c(=O)[nH]2)CC[C@H]1NC(=O)c1cc(Cl)cc2c1OC(C)(C)C2 [Compound 18]
718 nM	3650 nM	CC1(C)Cc2c(N)c(Cl)cc(C(=O)NC3CCN(CCCNc4nc(O)c5ccccc5n4)CC3)c2O1 [Compound 4]
387 nM	2740 nM	CO[C@@H]1CN(CCCNc2nc(O)c3ccccc3n2)CC[C@@H]1NC(=O)c1cc(Cl)c(N)c2c1OCCC2 [Compound 6]
32.3 nM	–	O=c1[nH]c(NCCN2CCC(Nc3nc4ccccc4c(=O)[nH]3)CC2)nc2ccccc12 [Compound 30]

Structure (SMILES)	IC50 [1]	IC50 [2]
O=c1[nH]c(NCCCN2CCC(O)(c3ccc(Cl)cc3)CC2)nc2ccccc12 [Compound 2]	133 nM	973 nM
